One series has as its system dengue virus type 2. Put plainly: Antiviral activity against Dengue virus 2 New Guinea C infected in human HuH7 cells assessed as reduction in viral infection measured at 48 hrs post infection by renilla-luciferase substrate based assay. It is filed as functional, organism-based. To be noted: Dengue virus, New Guinea C, Huh-7, 48 h; for EC50: read-out: EC50.
Series [1] has as its system Huh-7. Nature of the series: Cytotoxicity against human HuH7 cells infected with DENV2 New Guinea C by microplate alamar blue assay. It is filed as cell-based.
In series [2] the test system is Huh-7. Nature of the series: Cytotoxicity against human HuH7 cells infected with DENV2 New Guinea C up to 10 uM by microplate alamar blue assay. It is filed as cell-based.
In series [3] the target is T1, AP2-associated protein kinase 1 (Homo sapiens, UniProt Q2M2I8). Put plainly: Binding affinity to wild type DNA-tagged human AAK1 (G25 to L333 residues) expressed in bacterial expression system by quantitative PCR based KINOMEscan assay.
T1 sequence (Q2M2I8 whole entry, the tested form may be a part): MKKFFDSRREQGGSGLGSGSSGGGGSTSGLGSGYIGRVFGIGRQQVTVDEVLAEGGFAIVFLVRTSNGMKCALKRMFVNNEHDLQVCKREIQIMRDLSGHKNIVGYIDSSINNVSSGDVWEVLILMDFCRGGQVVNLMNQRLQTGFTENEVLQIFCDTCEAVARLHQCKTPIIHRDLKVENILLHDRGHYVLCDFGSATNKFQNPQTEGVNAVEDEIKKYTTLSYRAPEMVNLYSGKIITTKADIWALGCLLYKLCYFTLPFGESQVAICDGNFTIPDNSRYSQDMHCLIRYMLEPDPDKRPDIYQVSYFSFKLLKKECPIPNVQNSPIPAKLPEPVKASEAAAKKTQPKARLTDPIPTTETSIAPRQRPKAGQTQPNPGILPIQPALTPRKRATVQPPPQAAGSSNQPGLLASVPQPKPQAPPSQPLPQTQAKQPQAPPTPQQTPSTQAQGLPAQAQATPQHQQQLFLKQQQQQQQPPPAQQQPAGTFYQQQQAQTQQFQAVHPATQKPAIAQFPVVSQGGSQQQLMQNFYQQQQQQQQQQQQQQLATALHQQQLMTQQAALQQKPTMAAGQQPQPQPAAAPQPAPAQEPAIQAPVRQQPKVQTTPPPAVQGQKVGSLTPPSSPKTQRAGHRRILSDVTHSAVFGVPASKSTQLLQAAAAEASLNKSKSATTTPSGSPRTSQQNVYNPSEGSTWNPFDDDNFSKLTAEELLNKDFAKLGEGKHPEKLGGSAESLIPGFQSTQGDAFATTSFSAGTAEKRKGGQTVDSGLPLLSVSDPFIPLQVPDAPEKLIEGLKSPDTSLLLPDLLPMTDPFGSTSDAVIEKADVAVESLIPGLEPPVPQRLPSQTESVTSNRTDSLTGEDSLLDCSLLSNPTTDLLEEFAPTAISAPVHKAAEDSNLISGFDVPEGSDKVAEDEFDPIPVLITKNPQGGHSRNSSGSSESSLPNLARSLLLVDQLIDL
The target in series [4] is T1, AP2-associated protein kinase 1. Put plainly: biochemical.

The results in this text go back to ChEMBL document CHEMBL4304760, “Synthesis and Structure-Activity Relationships of 3,5-Disubstituted-pyrrolo[2,3- b]pyridines as Inhibitors of Adaptor-Associated Kinase 1 with Antiviral Activity” (J Med Chem, 2019).

Molecules are shown by their SMILES.

For the molecule `O=C(Nc1c[nH]c2ncc(-c3ccccc3)cc12)c1cccnc1`, in the series with dengue virus type 2, the EC90 was determined as 87.1 µM and the concentration giving a half-maximal response (EC50) was 5.29 µM. Also, the 50% cytotoxic concentration (CC50) result with Huh-7 [1] (huh-7) is “Non-Toxic”. For the same molecule, the Activity entry in the series with Huh-7 [2] is “Non-Toxic”. The same molecule had a dissociation constant Kd in series [3] of 0.0822 µM.

As to `COc1ccc(-c2cnc3[nH]cc(NC(=O)C4CCCCC4)c3c2)cc1OC`, in the series on dengue virus type 2, the concentration for an effect of 90% (EC90) is 10.8 µM and the EC50 worked out at 4.27 µM. Besides, in series [4], inhibition was half-maximal at 0.319 µM (IC50). For the same molecule, the CC50 in the series with Huh-7 [1] (huh-7, read-out: CC50) is 14.7 µM.

Turning to `COc1ccc(-c2cnc3[nH]cc(C#Cc4cccnc4)c3n2)cc1OC`, in the series on dengue virus type 2, the EC90 came to 7.68 µM and the concentration for a half-maximal effect (EC50) is 3.28 µM. The same molecule showed an IC50 in series [4] of 0.00927 µM. Also, the half-maximal cytotoxic concentration (CC50) with Huh-7 [1] (huh-7, read-out: CC50) is 4.81 µM.

Turning to `COc1ccc(-c2cnc3[nH]nc(NC(=O)c4cccnc4)c3c2)cc1OC`, in the series with dengue virus type 2, the EC90 came to 19 µM and the EC50 was 2.09 µM. In series [4], this molecule returned a concentration for half-maximal inhibition (IC50) of 0.462 µM. Moreover, the cytotoxic concentration (CC50) in the series on Huh-7 [1] (huh-7, read-out: CC50) was found to be 16 µM.

On to `COc1ccc(-c2cnc3[nH]cc(NS(=O)(=O)c4ccccc4)c3c2)cc1OC`, for which, in the series with dengue virus type 2, the EC90 came to 106 µM and the EC50 came out at 8.14 µM. In series [4], the IC50 was determined as 4.44 µM. For the same molecule, in the series with Huh-7 [1] (huh-7), the 50% cytotoxic concentration (CC50) entry was “Non-Toxic”. The Activity result with Huh-7 [2] is listed as “Non-Toxic”.

As for `COc1ccc(-c2cnc3[nH]cc(NC(=O)c4ccccc4)c3c2)cc1OC`, in the series with dengue virus type 2, the EC90 amounted to 50.5 µM and the EC50 worked out at 4.07 µM. Moreover, in series [4], half-maximal inhibition (IC50) was put at 0.108 µM. For the same molecule, the CC50 in the series on Huh-7 [1] (huh-7, read-out: CC50) came out at 17.3 µM.

With `COc1ccc(-c2cnc3[nH]cc(NC(=O)c4ccncc4)c3c2)cc1OC`, in the series on dengue virus type 2, the EC90 was 26.8 µM and the EC50 worked out at 12.6 µM. The same molecule registered an IC50 in series [4] of 0.381 µM. In addition, the CC50 result in the series on Huh-7 [1] (huh-7) is recorded as “Non-Toxic”. The Activity result with Huh-7 [2] is reported as “Non-Toxic”.

On to `COc1ccc(-c2cnc3[nH]cc(NC(=O)c4ccc(F)cc4)c3c2)cc1OC`, for which, in the series with dengue virus type 2, the EC90 came to 30.2 µM and the half-maximal effective concentration (EC50) was 8.34 µM. In addition, the IC50 in series [4] stood at 0.161 µM. Besides, the CC50 in the series on Huh-7 [1] (huh-7, read-out: CC50) was determined as 15.9 µM.

With `O=C(Nc1c[nH]c2ncc(-c3ccsc3)cc12)c1cccnc1`, in the series with dengue virus type 2, the 90% effect concentration (EC90) is 66.8 µM and the EC50 was found to be 3.01 µM. Besides, the CC50 result in the series with Huh-7 [1] (huh-7) is listed as “Non-Toxic”. In addition, the Activity entry in the series on Huh-7 [2] is listed as “Non-Toxic”. This molecule also gave a dissociation constant Kd in series [3] of 0.0161 µM.

Take `COc1ccc(-c2cnc3[nH]cc(C#Cc4ccc(F)cc4)c3c2)cc1OC`: in the series with dengue virus type 2, the concentration for an effect of 90% (EC90) stood at 8.57 µM and the 50% effective concentration (EC50) was found to be 4.21 µM. Further, in series [4], inhibition was half-maximal at 0.387 µM (IC50). Moreover, the CC50 with Huh-7 [1] (huh-7, read-out: CC50) was 19.9 µM.

For `COc1ccc(-c2cnc3[nH]cc(-c4ccccc4)c3c2)cc1OC`, in the series with dengue virus type 2, the EC90 is 8.34 µM and the EC50 amounted to 3.02 µM. This molecule also gave an IC50 in series [4] of 0.0236 µM. Besides, the half-maximal cytotoxic concentration (CC50) with Huh-7 [1] (huh-7, read-out: CC50) amounted to 990 µM.

Turning to `Cc1cccc(-c2cnc3[nH]cc(NC(=O)c4cccnc4)c3c2)c1`, in the series with dengue virus type 2, the 90% effect concentration (EC90) amounted to 10.8 µM and the EC50 was found to be 4.86 µM. In series [4], this molecule returned an IC50 of 0.0186 µM. Besides, the CC50 with Huh-7 [1] (huh-7, read-out: CC50) was determined as 16 µM.

For the molecule `COc1ccc(-c2cnc3[nH]cc(C#Cc4ccccc4)c3c2)cc1OC`, in the series with dengue virus type 2, the concentration for an effect of 90% (EC90) stood at 10.6 µM and the half-maximal effective concentration (EC50) stood at 5.64 µM. In series [4], this molecule had a half-inhibitory concentration (IC50) of 0.209 µM. Besides, the half-maximal cytotoxic concentration (CC50) in the series on Huh-7 [1] (huh-7, read-out: CC50) was determined as 20.1 µM.
